As usually defined, the pEC50 is −log10 of the EC50, conventionally taken in molar units. Read a low pEC50 as a large EC50. The term pKi denotes −log10 of the Ki, conventionally taken in molar units.

The values below come from patent publication US8518952B2, “6 substituted 2-heterocyclylamino pyrazine compounds as CHK-1 inhibitors” (Pfizer Inc., priority 2008, dated 2013).

pEC50, pKi: −log10 of the molar value. Where a name gives a salt, the structure may show the parent alone.

For one experiment, the system named is Mia Paca-2 cells. The experiment can be described thus: Histone H3 (Ser10) phosphorylation ELISA, abrogation of camptothecin-induced G2 arrest (CHK-1 cellular assay). Conditions: Homo sapiens, camptothecin 8 hrs, then compound with nocodozole 16 hours. In kind it is cell-based. The protocol:
The Histone H3 phosphorylation ELISA assay detects cells entering mitosis and represents the primary in vitro cell-based assay used to measure the cellular potency of compounds in abrogating the G2 check point induced by DNA damage in HeLa cells or MiaPaCa cells. The candidate substances were assayed for potency in their ability to inhibit camptothecin-induced G2 arrest, as measured by an increase in Histone H3 phosphorylation on Ser10, a marker of entry into mitosis.
The PathScan Phospho-Histone H3 (Ser10) Sandwich ELISA kit was used (Cell Signaling, #7155) and the assay was performed according to manufacturer recommendations. Tissue culture plates were seeded with HeLa cells or MiaPaCa Cells and allowed to attach overnight. The cells were then treated with camptothecin to induce DNA damage for 8 hrs. Candidate substances or diluent were then added in the presence of nocodozole for 16 hours. Cells were then lysed with buffer from Assay Designs (#80-1114) supplemented with protease inhibitors and frozen overnight. The fresh whole cell lysates were then thawed and added to the ELISA plate with shaking for 3 hours. Between all subsequent steps plates were washed 4 times with PBST. Biotinylated phospho Histone H3 (ser10) detection antibody was added for 1 hour, followed by addition of horseradish peroxidase-linked streptavidin secondary antibody for 1 hour. Color development of the antibody was performed with addition of TMB substrate and incubation for 2 minutes on a plate shaker. Stop solution was added and plates were read with absorbance at 450 nm on a spectrophotometer. EC50 values were calculated by sigmoid curve fitting using a four-parameter analysis.
Under the “Ki” column, data entries in the format of “%” are percent inhibition data where no Ki data is available. Data entry under the “EC50” column with an * are data obtained using Mia Paca-2 cells rather than HeLa cells. Data is not available where noted as n/a.

The target in another experiment is T1, CHK1 (kinase domain) (Homo sapiens, UniProt O14757).
T1 construct: a solution containing 1 nM of CHK1 (kinase domain)
T1 sequence (O14757 9-265 limits assumed): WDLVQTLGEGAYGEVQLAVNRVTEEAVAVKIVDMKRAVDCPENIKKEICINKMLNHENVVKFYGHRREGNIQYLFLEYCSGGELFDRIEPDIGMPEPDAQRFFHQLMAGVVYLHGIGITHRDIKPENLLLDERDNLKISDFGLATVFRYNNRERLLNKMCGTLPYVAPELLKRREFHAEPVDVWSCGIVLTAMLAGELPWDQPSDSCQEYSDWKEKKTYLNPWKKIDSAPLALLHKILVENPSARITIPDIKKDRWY
The experiment is described as follows: CHK1 Ki determination, spectrophotometric coupled (pyruvate kinase/lactate dehydrogenase) assay. In kind it is biochemical. Conditions: CHK-1 kinase domain; for pKi: 150 uM ATP, 125 uM Syntide 2. A digest of the protocol: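 The CHK1 kinase domain was pre-incubated with compound for 15 min, and the reaction was started with 125 uM Syntide 2 and 150 uM ATP. ADP formation was coupled through pyruvate kinase/lactate dehydrogenase to NADH oxidation, read as the A340 decrease. Kiapp was fitted with a tight-binding equation that accounts for enzyme concentration and ATP Km; some entries are % inhibition.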

[1] abbreviates: MIA PaCa-2, Mia Paca-2 cells (entries marked *).
[2] abbreviates: Mia Paca-2 cells (entries marked *).

Molecule `Oc1ccn2c(-c3cncc(N[C@@H]4CCCNC4)n3)cnc2c1` [Example 137, 3-{6-[(3R)-piperidin-3-ylamino]pyrazin-2-yl}imidazo[1,2-a]pyridin-7-ol] showed a pEC50 in the experiment on Mia Paca-2 cells (setting [1]) of 6.59. Besides, the pKi on CHK1 (kinase domain) was 8.62.
The matching figures for `C[C@@H]1CCNC[C@@H]1Nc1cncc(-c2cnc3ccccn23)n1` [Example 204, 6-(imidazo[1,2-a]pyridin-3-yl)-N-[(3R,4R)-4-methylpiperidin-3-yl]pyrazin-2-amine]: 7.13 and 7.26.
The matching figures for `C[C@@H]1NCCC[C@H]1Nc1cncc(-c2cnc3ccc(Cl)cn23)n1` [Example 225, 6-(6-chloroimidazo[1,2-a]pyridin-3-yl)-N-[(2S,3R)-2-methylpiperidin-3-yl]pyrazin-2-amine]: 7.19 and 7.75.
Regarding `COC[C@@H]1C[C@@H](Nc2cncc(-c3cnc4cc(C)ccn34)n2)CN1` [Example 239, N-[(3R,5S)-5-(methoxymethyl)pyrrolidin-3-yl]-6-(7-methylimidazo[1,2-a]pyridin-3-yl)pyrazin-2-amine], the pEC50 in the experiment with Mia Paca-2 cells (setting [2]) was 6.70. At CHK1 (kinase domain), this molecule showed a pKi of 7.14.
For the molecule `FC[C@@H]1CNC[C@@H]1Nc1cncc(-c2cnc3ccccn23)n1` [Example 130, N-[(3R,4R)-4-(fluoromethyl)pyrrolidin-3-yl]-6-imidazo[1,2-a]pyridin-3-ylpyrazin-2-amine], in the experiment on Mia Paca-2 cells (setting [2]), the pEC50 was 6.86. Also, the pKi at CHK1 (kinase domain) is 8.31.
In turn, `C[C@@H]1CNC[C@@H]1Nc1cncc(-n2cnc3cc(OCC4(C)COC4)ccc32)n1` [Example 234, 6-{5-[(3-methyloxetan-3-yl)methoxy]-1H-benzimidazol-1-yl}-N-[(3R,4R)-4-methylpyrrolidin-3-yl]pyrazin-2-amine] gave a pEC50 with Mia Paca-2 cells (setting [2]) of 7.05. On CHK1 (kinase domain), this molecule showed a pKi of 8.60.
On to `CC(C)(O)c1ccc2ncc(-c3cncc(N[C@@H]4CCCNC4)n3)n2c1` [Example 232, 2-(3-{6-[(3R)-piperidin-3-ylamino]pyrazin-2-yl}imidazo[1,2-a]pyridin-6-yl)propan-2-ol], for which, in the experiment on Mia Paca-2 cells (setting [1]), the pEC50 was 7.00. This molecule gave a pKi at CHK1 (kinase domain) of 8.59.
Regarding `CC(C)c1cn2c(-c3cncc(N[C@@H]4CC[C@@H](C)NC4)n3)cnc2s1` [Example 110, 6-(2-isopropylimidazo[2,1-b][1,3]thiazol-5-yl)-N-[(3R,6R)-6-methylpiperidin-3-yl]pyrazin-2-amine], the pEC50 with Mia Paca-2 cells (setting [2]) is 6.23. This molecule also had a pKi on CHK1 (kinase domain) of 7.76.
Taken in the same sequence, the figures for `c1ccn2c(-c3cncc(N[C@@H]4C[C@@H]5CN[C@H]4C5)n3)cnc2c1` [Example 123, (1S,4R,6R)-N-(6-imidazo[1,2-a]pyridin-3-ylpyrazin-2-yl)-2-azabicyclo[2.2.1]heptan-6-amine] were 7.64 and 8.49.
As to `CCOC[C@@H]1C[C@@H](Nc2cncc(-c3cnc4cc(C)ccn34)n2)CN1` [Example 241, N-[(3R,5S)-5-(ethoxymethyl)pyrrolidin-3-yl]-6-(7-methylimidazo[1,2-a]pyridin-3-yl)pyrazin-2-amine], the pEC50 in the experiment on Mia Paca-2 cells (setting [2]) was 6.70. On CHK1 (kinase domain), this molecule had a pKi of 7.35.
On to `CCOc1ccc2c(c1)ncn2-c1cncc(N[C@H]2CN[C@H](COC)C2)n1` [Example 269, 6-(5-ethoxy-1H-benzimidazol-1-yl)-N-[(3R,5S)-5-(methoxymethyl)pyrrolidin-3-yl]pyrazin-2-amine], for which, in the experiment on Mia Paca-2 cells (setting [2]), the pEC50 is 7.14. The pKi on CHK1 (kinase domain) was 8.01.
The molecule `Cc1ncc(N[C@@H]2CCCNC2)nc1-c1cnc2ccccn12` [Example 247, 6-(imidazo[1,2-a]pyridin-3-yl)-5-methyl-N-[(3R)-piperidin-3-yl]pyrazin-2-amine] showed a pEC50 with Mia Paca-2 cells (setting [1]) of 5.95. At CHK1 (kinase domain), the pKi was 6.72.
For `C[C@@H]1CCNC[C@@H]1Nc1cncc(-c2cnn3ccccc23)n1` [Example 206, N-[(3R,4R)-4-methylpiperidin-3-yl]-6-(pyrazolo[1,5-a]pyridin-3-yl)pyrazin-2-amine], the pEC50 in the experiment with Mia Paca-2 cells (setting [2]) is 6.62. On CHK1 (kinase domain), the pKi was 7.32.
For the molecule `Cc1cn2c(-c3cncc(N[C@@H]4CCCNC4)n3)cnc2cn1` [Example 135, 6-(6-methylimidazo[1,2-a]pyrazin-3-yl)-N-[(3R)-piperidin-3-yl]pyrazin-2-amine], the pEC50 in the experiment with Mia Paca-2 cells (setting [2]) is 6.68. The molecule further showed a pKi at CHK1 (kinase domain) of 7.90.
`COc1ccc2ncn(-c3cncc(N[C@@H]4CCCNC4)n3)c2c1` [Example 142, 6-(6-methoxy-1H-benzimidazol-1-yl)-N-[(3R)-piperidin-3-yl]pyrazin-2-amine] had a pEC50 in the experiment on Mia Paca-2 cells (setting [2]) of 6.90. On CHK1 (kinase domain), the pKi was 8.83.
Taken in the same sequence, the figures for `COC[C@@H]1C[C@@H](Nc2cncc(-c3cnc4ccccn34)n2)CN1` [Example 157, 6-(imidazo[1,2-a]pyridin-3-yl)-N-[(3R,5S)-5-(methoxymethyl)pyrrolidin-3-yl]pyrazin-2-amine] were 7.13 and 7.66.
In the experiment with Mia Paca-2 cells (setting [2]), `C[C@@H]1CNC[C@@H]1Nc1cncc(-c2cnc3ccc(C(C)(C)O)cn23)n1` [Example 14, 2-[3-(6-{[(3R,4R)-4-methylpyrrolidin-3-yl]amino}pyrazin-2-yl)imidazo[1,2-a]pyridin-6-yl]propan-2-ol] gave a pEC50 of 5.38. The pKi at CHK1 (kinase domain) was 7.47.
Taken in the same sequence, the figures for `COC[C@@H]1C[C@@H](Nc2cncc(-c3cnc4cc(F)ccn34)n2)CN1` [Example 236, 6-(7-fluoroimidazo[1,2-a]pyridin-3-yl)-N-[(3R,5S)-5-(methoxymethyl)pyrrolidin-3-yl]pyrazin-2-amine] were 6.32 and 7.06.
The matching figures for `CC(C)c1cn2c(-c3cncc(N[C@@H]4CCCNC4)n3)cnc2s1` [Example 160, N-[(3R)-piperidin-3-yl]-6-[2-(propan-2-yl)imidazo[2,1-b][1,3]thiazol-5-yl]pyrazin-2-amine]: 7.59 and 8.97.
Regarding `CCOc1ccc2c(c1)ncn2-c1cncc(N[C@@H]2CCCNC2)n1` [Example 214, 6-(5-ethoxy-1H-benzimidazol-1-yl)-N-[(3R)-piperidin-3-yl]pyrazin-2-amine], the pEC50 in the experiment on Mia Paca-2 cells (setting [2]) is 7.91. This molecule had a pKi on CHK1 (kinase domain) of 9.03.
Taken in the same sequence, the figures for `CCOc1ccc2ncn(-c3cncc(N[C@H]4CN[C@H](COC)C4)n3)c2c1` [Example 268, 6-(6-ethoxy-1H-benzimidazol-1-yl)-N-[(3R,5S)-5-(methoxymethyl)pyrrolidin-3-yl]pyrazin-2-amine] were 5.83 and 7.18.
The matching figures for `Cc1cn2c(-c3cncc(N[C@@H]4CCCN[C@@H]4C)n3)cnc2cn1` [Example 285, 6-(6-methylimidazo[1,2-a]pyrazin-3-yl)-N-[(2R,3R)-2-methylpiperidin-3-yl]pyrazin-2-amine]: 7.04 and 7.67.
For `C[C@@H]1CNC[C@@H]1Nc1cncc(-c2cnn3cccc(F)c23)n1` [Example 200, 6-(4-fluoropyrazolo[1,5-a]pyridin-3-yl)-N-[(3R,4R)-4-methylpyrrolidin-3-yl]pyrazin-2-amine], in the experiment with Mia Paca-2 cells (setting [2]), the pEC50 is 6.90. Besides, the “percent inhibition (where no Ki data is available)” value at CHK1 (kinase domain) (inhibitor concentration not given) amounted to 26.1%^.
For `c1cn2ncc(-c3cncc(N[C@@H]4CCCNC4)n3)c2cn1` [Example 251, N-[(3R)-piperidin-3-yl]-6-(pyrazolo[1,5-a]pyrazin-3-yl)pyrazin-2-amine, acetate salt], the pEC50 in the experiment on Mia Paca-2 cells (setting [2]) was 6.59. The molecule also gave a pKi on CHK1 (kinase domain) of 8.00.
In the experiment with Mia Paca-2 cells (setting [2]), `C[C@@H]1CNC[C@@H]1Nc1cncc(-c2cnc3cc(Cl)ccn23)n1` [Example 129, 6-(7-chloroimidazo[1,2-a]pyridin-3-yl)-N-[(3R,4R)-4-methylpyrrolidin-3-yl]pyrazin-2-amine] showed a pEC50 of 7.97. On CHK1 (kinase domain), this molecule showed a pKi of 9.03.
Turning to `N#Cc1ncc(N[C@@H]2CCCNC2)nc1-c1cnc2ccccn12` [Example 20, 3-(imidazo[1,2-a]pyridin-3-yl)-5-[(3R)-piperidin-3-ylamino]pyrazine-2-carbonitrile], the pEC50 in the experiment on Mia Paca-2 cells (setting [1]) is 5.00. In addition, the pKi on CHK1 (kinase domain) is 6.03.
In the experiment with Mia Paca-2 cells (setting [2]), `c1ncc(-n2cnc3cnc(N4CCOCC4)cc32)nc1N[C@@H]1CCCNC1` [Example 272, 6-[6-(morpholin-4-yl)-1H-imidazo[4,5-c]pyridin-1-yl]-N-[(3R)-piperidin-3-yl]pyrazin-2-amine] showed a pEC50 of 5.70. For the same molecule, the pKi at CHK1 (kinase domain) is 7.39.
